As a reminder, the IC50 is the midpoint of a concentration-inhibition curve.

Test [1] concerns the target PASK (UniProt #Q96RG2; residues 879-1323) (Homo sapiens (Human), UniProt Q96RG2). In words: PASK ATP Radiochemical Assay. The class given is biochemical. As to conditions: 33P-ATP radiochemical assay; read-out: IC50 Kinase Domain. The method, then: PASK ATP Radiochemical Assay Purified PASK (UniProt #Q96RG2; human recombinant N-terminal GST tagged construct, residues 879-1323) from insect cells (final concentration 5 nM) is added to freshly prepared Base Reaction Buffer containing 20 mM HEPES (pH 7.5), 10 mM MgCl2, 1 mM EGTA, 0.02% Brij35, 0.02 mg/ml BSA, 0.1 mM Na3VO4, 2 mM DTT, 1% DMSO and Myelin Basic Protein (20 μM final). Test compounds in DMSO are then added and the mixture, followed by delivery of ^33P-ATP (specific activity 0.01 μCi/μl final) to initiate the reaction. The kinase reaction is incubated for 120 min at room temperature. The entire reaction mixture is washed through onto a P81 Phosphocellulose paper and washed three times for 10 minutes in 75 mM phosphoric acid and once in methanol prior to drying and scintillation counting.

Test [2] concerns the target PASK (Homo sapiens (Human), UniProt Q96RG2). In words: PAS Kinase FRET Assay. It is filed as biochemical. As to conditions: TR-FRET assay; read-out: IC50 Kinase Domain. The method, boiled down:
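Reaction buffer: 50 mM HEPES, 10 mM MgCl2, 1 mM EGTA, 2 mM DTT, 0.01% Tween-20. Test compounds (eleven-point series prepared at 4× final) preceded PASK and substrate/ATP. Reaction ran 2 h at 25 °C in the dark, then stopped. Phospho-ULight peptide detected by Eu-antibody TR-FRET, 665/615 nm ratio.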
In general terms: Time-resolved FRET reads energy transfer from a long-lived donor to a nearby acceptor.

In another test the target is CK2a2 (Homo sapiens (Human), UniProt P19784). In words: Biochemical Assay for CK2 Activity. As to conditions: 33P-ATP radiochemical assay; read-out: IC50 CK2 a2. The method, then:
Biochemical Assay for CK2 Activity
Purified CK2a2 (NP_001887; human full-length protein, GST tagged) from insect cells (final concentration 1.2 nM) is added to freshly prepared Base Reaction Buffer containing 20 mM Hepes (pH 7.5), 10 mM MgCl2, 1 mM EGTA, 0.02% Brij35, 0.02 mg/ml BSA, 0.1 mM Na3VO4, 2 mM DTT, 1% DMSO and CK2 sub [RRRDDDSDDD] (20 μM final). Test compounds in DMSO are then added and the mixture, followed by delivery of ^33P-ATP (specific activity 0.01 μCi/μl final) to initiate the reaction. The kinase reaction is incubated for 120 min at room temperature. The entire reaction mixture is washed through onto a P81 Phosphocellulose paper and washed three times for 10 minutes in 75 mM phosphoric acid and once in methanol prior to drying and scintillation counting.

Sequence of CK2a2 (P19784 whole entry): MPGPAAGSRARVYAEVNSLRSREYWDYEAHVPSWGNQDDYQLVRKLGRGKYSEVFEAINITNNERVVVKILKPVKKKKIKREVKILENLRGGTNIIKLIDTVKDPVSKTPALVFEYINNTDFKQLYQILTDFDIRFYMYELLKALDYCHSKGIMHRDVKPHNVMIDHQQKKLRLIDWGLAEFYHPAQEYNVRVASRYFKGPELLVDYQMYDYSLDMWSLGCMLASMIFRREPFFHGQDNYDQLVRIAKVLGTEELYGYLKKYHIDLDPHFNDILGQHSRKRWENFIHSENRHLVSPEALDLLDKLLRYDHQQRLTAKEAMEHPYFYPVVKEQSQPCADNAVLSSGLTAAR
Sequence of PASK (UniProt #Q96RG2; residues 879-1323) (Homo sapiens (Human), UniProt Q96RG2) (Q96RG2 879-1323): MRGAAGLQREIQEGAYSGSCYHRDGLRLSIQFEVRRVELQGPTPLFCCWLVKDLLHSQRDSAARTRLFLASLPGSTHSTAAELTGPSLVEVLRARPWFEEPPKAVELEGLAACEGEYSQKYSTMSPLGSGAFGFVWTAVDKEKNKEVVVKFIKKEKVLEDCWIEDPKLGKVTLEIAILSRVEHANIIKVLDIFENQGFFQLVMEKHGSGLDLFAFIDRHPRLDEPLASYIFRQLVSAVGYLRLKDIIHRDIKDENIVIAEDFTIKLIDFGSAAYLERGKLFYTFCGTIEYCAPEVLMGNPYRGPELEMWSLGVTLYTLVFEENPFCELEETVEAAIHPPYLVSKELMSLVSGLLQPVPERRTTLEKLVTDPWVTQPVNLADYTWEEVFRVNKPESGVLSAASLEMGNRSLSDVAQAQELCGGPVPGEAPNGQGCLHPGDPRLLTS
Sequence of PASK (Homo sapiens (Human), UniProt Q96RG2) (Q96RG2 999-1251): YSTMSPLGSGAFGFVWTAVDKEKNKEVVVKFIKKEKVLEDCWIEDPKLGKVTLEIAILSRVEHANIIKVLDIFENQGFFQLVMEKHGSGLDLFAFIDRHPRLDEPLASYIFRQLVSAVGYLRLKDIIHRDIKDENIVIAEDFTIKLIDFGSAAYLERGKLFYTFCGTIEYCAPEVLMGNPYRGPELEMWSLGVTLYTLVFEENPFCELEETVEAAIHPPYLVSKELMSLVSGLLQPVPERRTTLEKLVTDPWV

Consider `O=c1cc(-c2ccc3c(c2)OCCO3)[nH]c2c(-c3ccc(N4CCCC4)nc3)cnn12` [Example 119, 5-(2,3-Dihydrobenzo[b][1,4]dioxin-6-yl)-3-(6-(pyrrolidin-1-yl)pyridin-3-yl)pyrazolo[1,5-a]pyrimidin-7(4H)-one], for which the IC50 on PASK [1], on PASK [2] and on CK2a2 was not above 10 µM each time.
Take `COc1ccc2c(c1)CCc1c-2[nH]c2c(-c3ccccn3)cnn2c1=O` [Example 121, 3-Methoxy-11-(pyridin-2-yl)-5,6-dihydrobenzo[h]pyrazolo[5,1-b]quinazolin-7(12H)-one]: the IC50 at PASK [1], at PASK [2] and on CK2a2 was not above 10 µM each time.
Turning to `COc1ccc(-c2cc(=O)n3nc(O)c(-c4ccccn4)c3[nH]2)c(OC)c1` [Example 122, 5-(2,4-Dimethoxyphenyl)-2-hydroxy-3(pyridin-2-yl)pyrazolo[1,5-a]pyrimidin-7(4H)-one], the IC50 on PASK [1] was not above 10 µM; on PASK [2], not above 10 µM; at CK2a2, not below 10 µM.
As for `O=c1cc(-c2ccc(Cl)cc2)[nH]c2c(-c3ccccn3)c(O)nn12` [Example 123, 5-(4-Chlorophenyl)-2-hydroxy-3-(pyridin-2-yl)pyrazolo[1,5-a]pyrimidin-7(4H)-one], the concentration for half-maximal inhibition (IC50) at PASK [1] is not above 10 µM; at PASK [2] it was not above 10 µM; on CK2a2, not below 10 µM.
For the compound `O=c1cc(-c2ccc(F)cc2)[nH]c2c(-c3ccccn3)cnn12` [Example 125, 5-(4-Fluorophenyl)-3-(pyridin-2-yl)pyrazolo[1,5-a]pyrimidin-7(4H)-one], the half-maximal inhibitory concentration (IC50) at PASK [1], on PASK [2] and at CK2a2 was not above 10 µM in each case.
As to `O=c1cc(-c2ccc(Cl)c(Cl)c2)[nH]c2c(-c3ccccn3)cnn12` [Example 126, 5-(3,4-Dichlorophenyl)-3-(pyridin-2-yl)pyrazolo[1,5-a]pyrimidin-7(4H)-one], the IC50 at PASK [1], on PASK [2] and at CK2a2 was not above 10 µM each time.
Consider `O=c1cc(-c2ccc3occc3c2)[nH]c2c(-c3ccccc3)c(O)nn12` [Example 127, 5-(Benzofuran-5-yl)-2-hydroxy-3-phenylpyrazolo[1,5-a]pyrimidin-7(4H)-one], for which the IC50 at PASK [1], at PASK [2] and at CK2a2 was not above 10 µM throughout.
Regarding `O=c1cc(-c2ccc(Cl)cc2)[nH]c2c(-c3cccnc3)c(O)nn12` [Example 128, 5-(4-Chlorophenyl)-2-hydroxy-3-(pyridin-3-yl)pyrazolo[1,5-a]pyrimidin-7(4H)-one], the figures for the half-maximal inhibitory concentration (IC50) on PASK [1], on PASK [2] and on CK2a2 were not above 10 µM, not above 10 µM and not below 10 µM, respectively.
Take `O=c1cc(-c2ccc3c(c2)CCO3)[nH]c2c(-c3ccccn3)c(O)nn12` [Example 129, 5-(2,3-Dihydrobenzofuran-5-yl)-2-hydroxy-3-(pyridin-2-yl)pyrazolo[1,5-a]pyrimidin-7(4H)-one]: the IC50 is not above 10 µM at PASK [1], not above 10 µM at PASK [2] and not below 10 µM at CK2a2.
For `O=c1cc(-c2ccc3c(c2)CCO3)[nH]c2c(-c3cccnc3)c(O)nn12` [Example 130, 5-(2,3-Dihydrobenzofuran-5-yl)-2-hydroxy-3-(pyridin-3-yl)pyrazolo[1,5-a]pyrimidin-7(4H)-one], the IC50 on PASK [1], on PASK [2] and at CK2a2 was not above 10 µM in each case.
`O=c1cc(-c2ccc3occc3c2)[nH]c2c(-c3ccccn3)c(O)nn12` [Example 131, 5-(Benzofuran-5-yl)-2-hydroxy-3-(pyridin-2-yl)pyrazolo[1,5-a]pyrimidin-7(4H)-one]: the IC50 on PASK [1], on PASK [2] and on CK2a2 was not above 10 µM throughout.
As for `O=c1cc(-c2ccc3c(c2)OCO3)[nH]c2c(Cc3ccccc3)cnn12` [Example 133, 5-(Benzo[d][1,3]dioxol-5-yl)-3-benzylpyrazolo[1,5-a]pyrimidin-7(4H)-one], the IC50 at PASK [1], at PASK [2] and at CK2a2 was not above 10 µM throughout.
On to `COc1ccccc1-c1cc(=O)n2ncc(-c3ccccn3)c2[nH]1` [Example 135, 5-(2-Methoxyphenyl)-3-(pyridin-2-yl)pyrazolo[1,5-a]pyrimidin-7(4H)-one], for which the IC50 at PASK [1], at PASK [2] and on CK2a2 was not above 10 µM throughout.
As for `O=c1cc(-c2ccc(F)cc2)[nH]c2c(-c3ccccn3)c(O)nn12` [Example 137, 5-(4-Fluorophenyl)-2-hydroxy-3-(pyridin-2-yl)pyrazolo[1,5-a]pyrimidin-7(4H)-one], the IC50 on PASK [1] was not above 10 µM; at PASK [2] it was not above 10 µM; on CK2a2, not below 10 µM.
For the compound `Nc1nn2c(=O)cc(-c3ccc(Cl)cc3)[nH]c2c1-c1ccccc1` [Example 141, 2-Amino-5-(4-chlorophenyl)-3-phenylpyrazolo[1,5-a]pyrimidin-7(4H)-one], the IC50 on PASK [1], on PASK [2] and at CK2a2 was not above 10 µM in each case.
In the case of `Nc1nn2c(=O)cc(-c3ccc4c(c3)OCCO4)[nH]c2c1-c1ccccc1` [Example 142, 2-Amino-5-(2,3-dihydrobenzo[b][1,4]dioxin-6-yl)-3-phenylpyrazolo[1,5-a]pyrimidin-7(4H)-one], the IC50 at PASK [1], at PASK [2] and at CK2a2 was not above 10 µM in each case.
With `CN(Cc1ccccc1)C(=O)c1cnn2c(=O)cc(-c3ccc4c(c3)OCCO4)[nH]c12` [Example 143, N-Benzyl-5-(2,3-dihydrobenzo[b][1,4]dioxin-6-yl)-N-methyl-7-oxo-4,7-dihydropyrazolo[1,5-a]pyrimidine-3-carboxamide], the IC50 on PASK [1], on PASK [2] and on CK2a2 was not above 10 µM each time.
As to `O=C(NCc1ccccc1)c1cnn2c(=O)cc(-c3ccc(Cl)cc3)[nH]c12` [Example 144, N-Benzyl-5-(4-chlorophenyl)-7-oxo-4,7-dihydropyrazolo[1,5-a]pyrimidine-3-carboxamide], the IC50 at PASK [1], at PASK [2] and on CK2a2 was not above 10 µM each time.
As for `CCCNC(=O)c1cnn2c(=O)cc(-c3ccc4c(c3)OCCO4)[nH]c12` [Example 145, 5-(2,3-Dihydrobenzo[b][1,4]dioxin-6-yl)-7-oxo-N-propyl-4,7-dihydropyrazolo[1,5-a]pyrimidine-3-carboxamide], the IC50 on PASK [1], on PASK [2] and on CK2a2 was not above 10 µM each time.
In the case of `O=c1cc(-c2ccc3occc3c2)[nH]c2c(-c3cccnc3)c(O)nn12` [Example 147, 5-(Benzofuran-5-yl)-2-hydroxy-3-(pyridin-3-yl)pyrazolo[1,5-a]pyrimidin-7(4H)-one], the IC50 on PASK [1], at PASK [2] and on CK2a2 was not above 10 µM throughout.
Regarding `Nc1nn2c(=O)cc(-c3ccc4c(c3)OCCO4)[nH]c2c1-c1ccccn1` [Example 148, 2-Amino-5-(2,3-dihydrobenzo[b][1,4]dioxin-6-yl)-3-(pyridin-2-yl)pyrazolo[1,5-a]pyrimidin-7(4H)-one], the half-inhibitory concentration (IC50) on PASK [1], at PASK [2] and on CK2a2 was not above 10 µM each time.
Regarding `Nc1nn2c(=O)cc(-c3ccc4c(c3)OCO4)[nH]c2c1-c1ccccn1` [Example 150, 2-Amino-5-(benzo[d][1,3]dioxol-5-yl)-3-(pyridin-2-yl)pyrazolo[1,5-a]pyrimidin-7(4H)-one], the IC50 at PASK [1], at PASK [2] and on CK2a2 was not above 10 µM in each case.
Regarding `Nc1nn2c(=O)cc(-c3ccc(Cl)cc3)[nH]c2c1-c1ccccn1` [Example 152, 2-Amino-5-(4-chlorophenyl)-3-(pyridin-2-yl)pyrazolo[1,5-a]pyrimidin-7(4H)-one], the IC50 at PASK [1], at PASK [2] and at CK2a2 was not above 10 µM each time.
As for `CC(=O)Nc1nn2c(=O)cc(-c3ccc4c(c3)OCO4)[nH]c2c1-c1ccccn1` [Example 155, N-(5-(Benzo[d][1,3]dioxol-5-yl)-7-oxo-3-(pyridin-2-yl)-4,7-dihydropyrazolo[1,5-a]pyrimidin-2-yl)acetamide], the IC50 on PASK [1], on PASK [2] and on CK2a2 was not above 10 µM in each case.
As for `CCNc1nn2c(=O)cc(-c3ccc4c(c3)OCO4)[nH]c2c1-c1ccccn1` [Example 156, 5-(Benzo[d][1,3]dioxol-5-yl)-2-(ethylamino)-3-(pyridin-2-yl)pyrazolo[1,5-a]pyrimidin-7(4H)-one], the IC50 at PASK [1], on PASK [2] and at CK2a2 was not above 10 µM each time.

These data come from patent publication US10953012B2, “Heterocyclic compounds for the inhibition of pask” (BioEnergenix LLC, priority 2011, dated 2021).
